Molecules are shown by their SMILES. Where two headings read alike, the source gives them in different places.

The target of series [1] is dopamine transporter (Homo sapiens, UniProt Q01959). The series is described as follows: DA uptake: displacement of dopamine ligands in vitro (methods of Gu et al.).
Series [2] deals with T1, norepinephrine transporter (Homo sapiens, UniProt P23975). The experiment in a line: Functional activity, norephinephrine uptake inhibition in MDCK cell lines. The format is cell-based.
The target of series [3] is T2, serotonin transporter (Homo sapiens, UniProt P31645). The experiment in a line: Functional activity, serotonin uptake inhibition in human HEK-293 cell lines. Set-up: expressed in transfected cells; host or cells: HEK-293. It counts as cell-based.
Series [4] concerns the target DAT (Homo sapiens, UniProt Q01959). The experiment in a line: cell-based. The following applies: hDAT cell line; read-out: DA Uptake, Functional Assays (antagonism, EC50). Set-up: expressed in transfected cells.
Series [5] has as its target T2, serotonin transporter. The series is described as follows: 5-HT uptake: displacement of serotonin ligands in vitro (methods of Gu et al.). The format is binding.
Series [6] concerns the target T1, norepinephrine transporter. The experiment in a line: NE uptake: displacement of norephinephrine ligands in vitro (methods of Galli et al.). It counts as binding.
The subject of series [7] is rat. The series is described as follows: Acute toxicity assessment, maximum tolerated dose i.v., rat. It counts as in vivo. The following applies: rats. As for the experimental part:
(§1) An in vivo evaluation was carried out to determine the maximum tolerated dose of numerous test compounds in two animal species (mouse and rat). The compounds were administered i.v. and the animals were then observed for 72 h. Compounds 114, 115, 113, 110, 124, 125, 129, and 130 were solubilized in 5% dextrose (w/v)/polyethylene glycol 400 (4:1 v/v). Compounds 126, 127, 131, and 132 were solubilized in 10% hydroxypropyl-β-cyclodextrin (w/v).

For series [8], the system named is mouse. The series is described as follows: Acute toxicity assessment, maximum tolerated dose i.v., mouse. The format is in vivo. The following applies: mice. As for the experimental part: as §1
The subject of series [9] is rats. The experiment in a line: Behavioral despair assay in rats, 3 i.p. injections (Example 143). The settings on record: 30 mg/kg, 3 i.p. injections 24 h, 5 h and 1 h before test. It counts as in vivo, rat. An excerpt: The objective of this study was to assess the antidepressant effects of test compounds 124, 125, 126, and 127 in the behavioral despair assay in rats according to the methods described by Porsolt R. D., Anton G., Blavet N., Jalfre M., Behavioural despair in rats: a new model sensitive to antidepressant treatment, Eur. J. Pharmacol., 1978, 47, 379-391. The animals were preconditioned in a pretest session, where the rats were individually forced to swim inside a vertical plexiglass cylinder containing water maintained at 19-20° C. After 15 minutes in the water, they were allowed to dry for 15 minutes in a heated enclosure. Twenty four hours later, they were replaced in the cylinder and the total duration of immobility was measured during a 5 minute test (test session). The test compounds and vehicle were administered as a series of 3 intraperitoneal injections 24 h, 5 h and 1 h before the 5 minute test on the second day.
The results are expressed as the percentage of variation of the total duration of immobility calculated from the mean value of the vehicle-treated group (% variation=[(immobility duration of vehicle-immobility duration of test compound)/(immobility duration of vehicle)]×100%).

[10] abbreviates: DA Uptake, Uptake Profile (IC50, nM), displacement of dopamine ligands in vitro.
[11] abbreviates: human HEK-293 cell lines, read-out: 5-HT Uptake, Functional Assays (antagonism, EC50).
Setting [12] is: displacement of serotonin ligands in vitro, read-out: 5-HT Uptake, Uptake Profile (IC50).
The mark [13] stands for this setting: read-out: NE Uptake, Uptake Profile (IC50).
The mark [14] stands for this setting: NE Uptake, Uptake Profile (IC50, nM).
The mark [15] stands for this setting: 5-HT Uptake, Uptake Profile (IC50, nM).

T1 sequence (P23975 whole entry): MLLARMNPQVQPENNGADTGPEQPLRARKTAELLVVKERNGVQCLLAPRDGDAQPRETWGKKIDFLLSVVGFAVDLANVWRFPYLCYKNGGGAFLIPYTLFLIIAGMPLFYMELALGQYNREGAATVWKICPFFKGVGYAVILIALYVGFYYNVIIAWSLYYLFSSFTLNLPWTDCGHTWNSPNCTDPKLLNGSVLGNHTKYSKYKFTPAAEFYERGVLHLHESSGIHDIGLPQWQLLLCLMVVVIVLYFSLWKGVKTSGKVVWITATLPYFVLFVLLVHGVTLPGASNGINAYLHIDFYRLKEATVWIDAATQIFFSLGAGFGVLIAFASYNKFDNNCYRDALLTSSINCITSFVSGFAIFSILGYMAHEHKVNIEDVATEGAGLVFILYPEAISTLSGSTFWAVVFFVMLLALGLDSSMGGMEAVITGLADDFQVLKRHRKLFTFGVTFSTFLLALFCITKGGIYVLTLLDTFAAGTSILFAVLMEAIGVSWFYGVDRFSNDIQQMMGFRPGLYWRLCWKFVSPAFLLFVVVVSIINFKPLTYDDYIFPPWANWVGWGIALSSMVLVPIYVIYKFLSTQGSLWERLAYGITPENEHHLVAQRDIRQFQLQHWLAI
dopamine transporter, sequence (Q01959 whole entry): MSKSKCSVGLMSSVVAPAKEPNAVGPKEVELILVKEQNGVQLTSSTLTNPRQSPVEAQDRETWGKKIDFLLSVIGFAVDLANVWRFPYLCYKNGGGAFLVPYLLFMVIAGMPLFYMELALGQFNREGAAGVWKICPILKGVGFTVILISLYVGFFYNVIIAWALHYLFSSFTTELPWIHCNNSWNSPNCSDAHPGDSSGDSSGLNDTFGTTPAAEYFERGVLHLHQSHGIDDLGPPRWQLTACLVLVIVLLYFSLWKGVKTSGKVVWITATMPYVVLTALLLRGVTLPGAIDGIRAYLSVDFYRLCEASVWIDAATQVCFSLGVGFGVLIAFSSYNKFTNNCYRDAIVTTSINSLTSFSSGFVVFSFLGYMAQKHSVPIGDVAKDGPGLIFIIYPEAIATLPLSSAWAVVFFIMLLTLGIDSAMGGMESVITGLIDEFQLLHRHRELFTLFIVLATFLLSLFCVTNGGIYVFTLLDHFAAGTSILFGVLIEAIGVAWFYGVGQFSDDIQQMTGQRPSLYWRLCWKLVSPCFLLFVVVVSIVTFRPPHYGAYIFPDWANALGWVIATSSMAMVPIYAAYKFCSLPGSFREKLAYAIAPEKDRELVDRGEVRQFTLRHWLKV
DAT, sequence (Q01959 whole entry): as above
T2 sequence (P31645 whole entry): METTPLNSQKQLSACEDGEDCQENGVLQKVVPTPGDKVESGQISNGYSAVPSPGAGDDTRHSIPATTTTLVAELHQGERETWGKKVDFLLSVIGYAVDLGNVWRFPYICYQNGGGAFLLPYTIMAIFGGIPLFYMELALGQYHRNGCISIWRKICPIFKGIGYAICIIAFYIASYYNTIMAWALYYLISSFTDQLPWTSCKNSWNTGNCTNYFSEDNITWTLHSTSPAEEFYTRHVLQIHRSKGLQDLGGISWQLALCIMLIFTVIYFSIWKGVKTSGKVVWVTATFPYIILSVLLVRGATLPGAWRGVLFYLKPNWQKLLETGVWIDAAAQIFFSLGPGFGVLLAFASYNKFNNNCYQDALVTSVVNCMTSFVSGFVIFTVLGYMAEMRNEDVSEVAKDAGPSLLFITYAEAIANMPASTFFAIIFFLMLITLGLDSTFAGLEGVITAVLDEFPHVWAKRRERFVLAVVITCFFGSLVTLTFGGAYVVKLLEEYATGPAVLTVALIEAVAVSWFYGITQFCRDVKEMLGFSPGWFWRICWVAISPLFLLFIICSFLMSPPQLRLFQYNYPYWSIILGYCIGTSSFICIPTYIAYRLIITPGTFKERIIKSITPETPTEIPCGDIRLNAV

As for `OC(CN1CCCC(COc2ccc(C(F)(F)F)cc2)C1)C1(c2ccccc2OC(F)(F)F)CCC1` (single isomer, unassigned) [compound 225, 1-[1-(2-Trifluoromethoxy-phenyl)-cyclobutyl]-2-[3-(4-trifluoromethyl-phenoxymethyl)-piperidin-1-yl]-ethanol], the IC50 in series [1] (setting [10]) was below 10 nM; in series [5] (setting [12]), below 1000 nM; in [6] (setting [13]), above 1000 nM. For the same compound, the concentration giving a half-maximal response (EC50) in series [2] (read-out: NE Uptake, Functional Assays (antagonism, EC50), MDCK cell lines) was above 1 µM; in [3] (setting [11]), above 1000 nM; in series [4] it was above 1 µM.
For `OC(CN1CCCC(COc2ccc(C(F)(F)F)cc2)C1)C1(c2ccccc2OC(F)(F)F)CCC1` (single isomer, unassigned) [compound 224, 1-[1-(2-Trifluoromethoxy-phenyl)-cyclobutyl]-2-[3-(4-trifluoromethyl-phenoxymethyl)-piperidin-1-yl]-ethanol], the half-maximal inhibitory concentration (IC50) in series [1] (setting [10]), in series [5] (setting [12]) and in series [6] (setting [13]) was above 1000 nM in each case. Further, the EC50 in [2] was above 1 µM; in series [3] (setting [11]), below 1000 nM; in series [4], above 1 µM.
For the compound `Fc1ccc(OCC2CCCN(CC3(c4ccc(Cl)cc4)CCC3)C2)cc1` (stereo not drawn) [compound 86, 1-[1-(4-Chloro-phenyl)-cyclobutylmethyl]-3-(4-fluoro-phenoxmethyl)-piperidine], the results for the 50% inhibitory concentration (IC50) in series [1] (setting [10]), in [5] (setting [12]) and in series [6] (setting [14]) were below 100 nM, below 1000 nM and below 1000 nM, respectively. Moreover, the EC50 was below 1 µM in [2], below 1000 nM in series [3] (setting [11]) and below 0.01 µM in series [4].
In the case of `CC(Oc1ccc(C(F)(F)F)cc1)C1CCCN(CC2(c3ccc(Cl)cc3)CCC2)C1` (stereo not drawn) [compound 99, 1-[1-(4-chloro-phenyl)-cyclobutylmethyl]-3-[1-(4-trifluoromethyl-phenoxy)-ethyl]-piperidine], the concentration for half-maximal inhibition (IC50) in [1] (setting [10]) was below 100 nM; in [5] (setting [12]) it was below 1000 nM; in [6] (setting [14]) it was below 1000 nM. In addition, the EC50 in [2] is below 1 µM; in [3] (setting [11]) it was above 1000 nM; in [4], below 0.01 µM.
On to `OC(CN1CCCC(CCc2ccccc2)C1)c1ccc(Cl)cc1` (single isomer, unassigned) [compound 143, 1-(4-Chloro-phenyl)-2-(3-phenethyl-piperidin-1-yl)-ethanol], for which the “tolerability and mortality after 72 h” value in series [7] (5 mg/kg i.v.) and in series [8] (5 mg/kg i.v.) was “tolerated” in each case. For the same compound, the IC50 in series [1] (setting [10]) was below 100 nM; in series [5] (setting [12]), below 10 nM; in [6] (setting [14]), below 100 nM.
Regarding `OC[C@H]1[C@@H](COc2ccc(C(F)(F)F)cc2)CCCN1CC1(c2ccc(Cl)cc2)CCC1` (single isomer, unassigned) [compound 132, cis-[1-[1-(4-chloro-phenyl)-cyclobutylmethyl]-3-(4-trifluoromethyl-phenoxymethyl)-piperidin-2-yl]-methanol], the “tolerability and mortality after 72 h” value in series [7] (30 mg/kg i.v.) and in [8] (30 mg/kg i.v.) was “well tolerated” each time. Also, the results for the 50% inhibitory concentration (IC50) in series [1] (setting [10]), in [5] (setting [12]) and in series [6] (setting [14]) were below 10 nM, below 1000 nM and below 100 nM, respectively.
For the compound `FC(F)(F)c1ccc(OCC2CN(CC3(c4ccc(Cl)cc4)CCC3)CCO2)cc1` (stereo not drawn) [compound 102], the half-maximal inhibitory concentration (IC50) is below 100 nM in [1] (setting [10]), above 1000 nM in series [5] (setting [15]) and above 1000 nM in [6] (setting [14]). The half-maximal effective concentration (EC50) was below 0.01 µM in series [2]; above 1000 nM in series [3] (5-HT Uptake, Functional Assays (antagonism, EC50, nM)); below 0.01 µM in series [4].
`O=C(CN1CCC[C@@H](COc2ccc(C(F)(F)F)cc2)C1)C1(c2ccc(Cl)cc2)CCC1` [compound 128, S-1-[1-(4-Chloro-phenyl)-cyclobutyl]-2-[3-(4-trifluoromethyl-phenoxymethyl)-piperidin-1-yl]-ethanone]: the figures for the 50% inhibitory concentration (IC50) in series [1] (setting [10]), in [5] (setting [12]) and in series [6] (setting [14]) were below 100 nM, below 1000 nM and below 1000 nM, respectively. For the same compound, the EC50 in series [2] was below 1 µM; in series [3] (setting [11]) it was below 1000 nM; in series [4] it was below 0.01 µM.
Regarding `O=C(CN1CCC[C@H](COc2ccc(C(F)(F)F)cc2)C1)C1(c2ccc(Cl)cc2)CCC1` [compound 123, S-1-[1-(4-Chloro-phenyl)-cyclobutyl]-2-[3-(4-trifluoromethyl-phenoxymethyl)-piperidin-1-yl]-ethanone], the IC50 in series [1] (setting [10]) is below 10 nM; in series [5] (setting [12]), below 1000 nM; in [6] (setting [14]) it was below 1000 nM. Further, the EC50 in [2] is below 1 µM; in series [3] (setting [11]), below 1000 nM; in [4], below 0.01 µM.
For the compound `OC(CN1CCC[C@@H](CCc2ccccc2)C1)c1ccc(Cl)cc1` (stereo partly drawn) [compound 233], the half-maximal inhibitory concentration (IC50) was below 10 nM in [1] (setting [10]), below 10 nM in series [5] (setting [12]) and below 100 nM in [6] (setting [14]). Further, the values for the concentration giving a half-maximal response (EC50) in series [2], in series [3] (setting [11]) and in [4] were below 0.01 µM, below 10 nM and below 0.01 µM, respectively.
Turning to `Clc1ccc(C2(CN3CCCC(COc4ccc5c(c4)OCO5)C3)CCC2)cc1` (stereo not drawn) [compound 83], the values for the IC50 in series [1] (setting [10]), in [5] (setting [12]) and in series [6] (setting [14]) were below 100 nM, below 1000 nM and below 1000 nM, respectively. Besides, the concentration giving a half-maximal response (EC50) was below 1 µM in [2], below 100 nM in series [3] (setting [11]) and below 0.01 µM in series [4].
As for `Clc1ccc(C2(CN3CCC[C@@H](CNc4ccccc4)C3)CCC2)cc1` [compound 28, {1-[1-(4-Chloro-phenyl)-cyclobutylmethyl]-piperidin-3-R-ylmethyl}-phenyl-amine], the IC50 in series [1] (setting [10]), in series [5] (setting [12]) and in series [6] (setting [14]) was below 1000 nM each time. The half-maximal effective concentration (EC50) in [2] was below 1 µM; in series [3] (setting [11]) it was below 1000 nM; in series [4] it was below 0.1 µM.
Consider `OCC1CCCN(CC2(c3ccc(Cl)cc3)CCC2)C1` (stereo not drawn) [compound 2], for which the IC50 is below 1000 nM in series [1] (setting [10]), above 1000 nM in [5] (setting [15]) and above 1000 nM in series [6] (setting [14]). For the same compound, the EC50 in series [4] is below 0.1 µM.
On to `OC[C@H]1[C@@H](COc2ccc(C(F)(F)F)cc2)CCCN1CC1(c2ccc(Cl)cc2)CCC1` (racemic) [compound 82, cis-[1-[1-(4-chloro-phenyl)-cyclobutylmethyl]-3-(4-trifluoromethyl-phenoxymethyl)-piperidin-2-yl]-methanol], for which the IC50 in series [1] (setting [10]) was below 100 nM; in [5] (setting [12]), below 1000 nM; in [6] (setting [14]) it was below 1000 nM. For the same compound, the EC50 is below 1 µM in [2] and below 0.1 µM in series [4].
With `FC(F)(F)c1ccc(OCC2CCCN(CC3(c4ccc(Cl)cc4)CCC3)C2)cc1` (stereo not drawn) [compound 7], the IC50 in series [1] (setting [10]) was below 100 nM; in [5] (setting [15]) it was above 1000 nM; in series [6] (setting [14]), above 1000 nM. Also, the EC50 in series [4] is below 0.1 µM.
With `CN(C)CCCN1c2ccccc2CCc2ccccc21` [Imipramine], in series [9], the “% variation of the total duration of immobility” value is listed as 55%.
As for `COC(CC1CCCN(CC2(c3ccc(Cl)cc3)CCC2)C1)c1ccccc1` (stereo in doubt) [compound 184, (S)-[1-[1-(4-Chloro-phenyl)-cyclobutylmethyl]-3-(2-methoxy-2-phenyl-ethyl)-piperidine]], the IC50 in series [1] (setting [10]), in series [5] (setting [12]) and in series [6] (setting [14]) was below 1000 nM throughout.
`CN(C[C@@H]1CCCN(CC2(c3ccc(Cl)cc3)CCC2)C1)c1ccccc1` [compound 35, {1-[1-(4-Chloro-phenyl)-cyclobutylmethyl]-piperidin-3-R-ylmethyl}-methyl-phenyl-amine]: the IC50 in [1], in [5] (setting [12]) and in [6] (setting [13]) was above 1000 nM in each case.
With `CN(C)CC(Oc1ccc(C(F)(F)F)cc1)C1CCCN(CC2(c3ccc(Cl)cc3)CCC2)C1` (racemic) [compound 174], the values for the half-inhibitory concentration (IC50) in series [1] (setting [10]), in series [5] (setting [12]) and in [6] (setting [14]) were below 100 nM, below 100 nM and below 1000 nM, respectively.
Turning to `CC(C)(CN1CCCC(COc2ccc(C(F)(F)F)cc2)C1)c1ccc(Cl)cc1` (stereo not drawn) [compound 42, 1-[2-(chloro-phenyl)-2-methyl-propyl]-3-(4-trifluoromethyl-phenoxymethyl)-piperidine], the concentration for half-maximal inhibition (IC50) was below 100 nM in series [1] (read-out: DA Uptake, Uptake Profile (IC50), displacement of dopamine ligands in vitro); above 1000 nM in series [5] (setting [12]); below 1000 nM in [6] (setting [13]).

As a reminder, the IC50 is the concentration needed to halve the response being measured. The term EC50 denotes the concentration that produces a half-maximal response.
